No end group written: not given here. *: point of attachment. FITC = O=C1OC2(c3ccc(O)cc3Oc3cc(O)ccc32)c2ccc(NC(=S)*)cc21
Columns and labels:
[1] = system: PKA-dependent process of Dictyostelium aggregation; assay: Aggregation of starved Dictyostelium cultures (PKA-dependent); type: cell-based, Dictyostelium discoideum; conditions: 10 micromolar
Description: FIG. 6. Cupid can transport small molecule cargo into cells. Starved Dictyostelium cultures were treated with no peptide (A), cupid B peptide (B), PKI peptide (C) and Cupid B-PKI peptide (D) and analysed for aggregation.
Upon starvation Dictyostelium initiates a developmental program leading to the aggregation of free-living amoebae. Genetic research has uncovered the crucial role that cyclic adenosine monophosphate (cAMP) plays in orchestrating as an extracellular chemoattractant in the initial aggregation process through Dictyostelium cAMP-dependent Protein Kinase (DdPKA). DdPKA can be inhibited by PKI, a 20 amino acid peptide sequence derived from an inhibitor of PKA, by PKI binding directly to the catalytic unit of PKA.
By creating a Cupid B-PKI fusion protein we aimed to establish that it prevents starving Dictyostelium cells from aggregating in vivo.

[2] = system: Dictyostelium discoideum amoeba cells; type: cell-based; conditions: for entry of fluorescently labeled peptide into cells: 10 μM, 1 hour, Dictyostelium cell; for time for half-maximal permeation: FITC-labelled peptide at 20 micromolar, Dictyostelium cells
Description: (§1) Peptides were labelled with Fluorescein isothiocyanate (FITC) using a FITC labeling kit as per instructions (Pierce, UK). When added to cell cultures the labeled peptides were visualized using a fluorescent microscope by exciting the FITC with a 488 nm spectral line, argon-ion laser (Excitation wavelength of 494 nm and an Emission wavelength of 518 nm).
AX2 wild type Dictyostelium cells were grown on SM agar plates seeded with Aerobacter aerogenes bacteria (also known as Klebsiella aerogenes) as a food source.
Cupid A ([…]; SEQ ID NO: 2) and Cupid B ([…]; SEQ ID NO: 1) were chemically synthesized labelled with FITC at the amino terminal. The peptides were added to cultured eukaryotic cells of Dictyostelium discoideum amoeba for varying amounts of time up to 2 hours. Cells were then washed and prepared for examination under a fluorescent microscope (FIG. 1). The time courses of permeation were compared to the class 3 CPP, the Antennapedia peptide, pANT which was also labelled with FITC in chemical synthesis (FIG. 2).

[3] = system: human embryonic kidney cells; assay: Permeation of FITC-labelled peptide into human embryonic kidney cells; type: cell-based; conditions: 10 μM, 1 hour, human kidney cell
Text: as §1

[4] = system: human fibroblasts; assay: Permeation of FITC-labelled peptide into human fibroblasts; type: cell-based; conditions: 10 μM, 1 hour, Human Fibroblast cell
Text: as §1

Row | Substance | effect on Dictyostelium aggregation [1] | entry of fluorescently labeled peptide into cells [2] | time for half-maximal permeation [2] [min] | entry of fluorescently labeled peptide into cells [3] | reversibility of permeation ([2]; media containing FITC-peptide replaced with peptide-free media) | entry of fluorescently labeled peptide into cells [4]
1 | Cupid B peptide: RRVQIWFQNKRAKVKR (SEQ ID NO: 1), cell penetrating peptide from Dictyostelium discoideum (listed as Dictyostelium discoideum) | neither the Cupid B peptide nor the PKI peptide alone have any effect on aggregation |  |  |  |  | 
2 | FITC-Cupid A: Cupid A (SEQ ID NO: 2) chemically synthesized, labelled with FITC at the amino terminal ({FITC}-RSVQIWFQNRRAKAR; listed as Dictyostelium discoideum) |  | entering cultured cells | 28 |  |  | 
3 | FITC-Cupid B: Cupid B (SEQ ID NO: 1) chemically synthesized, labelled with FITC at the amino terminal ({FITC}-RRVQIWFQNKRAKVKR; listed as Dictyostelium discoideum) |  | entering cultured cells | 17 | entering cultured cells | reversible | entering cultured cells

Source: US9913914B2, “Cell transport” (priority 2013, dated 2018)
